{"source": "paper PMC10484922", "about": "“Discovery of a selective and biologically active low-molecular weight antagonist of human interleukin-1β” (Nature Communications, 2023)", "key": {"[1]": {"tested_on": "HEK-Blue IL-1β cells stimulated with hIL-1α", "test": "HEK293 reporter gene assay, hIL-1α as trigger", "format": "cell-based, human", "details": "inhibitor 50uM", "experimental": "(§1) We used HEK-Blue™ IL-1β cells that respond specifically to IL-1 (# hkb-il1b, InvivoGen). These cells can detect IL-1α and IL-1β, as these cytokines bind to the same receptor, IL-1R1. They express a Seap reporter gene under the control of the IFN-β minimal promoter fused to five NF-kappaB and five AP-1 binding sites. Thirty microliters (300,000 cells/ml) per well of a 384-well plate were plated overnight. Cells were then stimulated with graded concentrations of cytokines (hIL-1α or hIL-1β) in the absence or presence of canakinumab (Ilaris®, ILARI LYVI 150MG 22GLW.012, batch U003 0409)[22], anakinra (Kineret®, 100 mg/0.67 ml injectable solution, Sobi)[23], or compound (S)-2 (compounds were pre-mixed for 1 h with the cytokine prior to addition to cells) and further incubated overnight before assessment of Seap activity."}, "[2]": {"tested_on": "HEK-Blue IL-1β cells stimulated with hIL-1β", "test": "HEK293 reporter gene assay, hIL-1β as trigger", "format": "cell-based, human", "details": "inhibitor 50uM", "experimental": "as §1"}}}
{"smiles": "Cc1ccc2c(c1)NC(=O)[C@@]2(c1cn[nH]c1)c1cc(-c2ccc(C(=O)O)cc2C(=O)O)ccc1O", "note": "[(S) 2]", "values": [{"measurement": "reporter gene assay signal, mean (Figure 3d)", "setting": "[1]; IL-1alpha 3.04596 pg/ml", "result": 0.08}, {"measurement": "reporter gene assay signal, mean (Figure 3d)", "setting": "[1]; IL-1alpha 6.09192 pg/ml", "result": 0.1}, {"measurement": "reporter gene assay signal, mean (Figure 3d)", "setting": "[1]; IL-1alpha 12.1838 pg/ml", "result": 0.15}, {"measurement": "reporter gene assay signal, mean (Figure 3d)", "setting": "[1]; IL-1alpha 24.3677 pg/ml", "result": 0.1}, {"measurement": "reporter gene assay signal, mean (Figure 3d)", "setting": "[1]; IL-1alpha 48.7353 pg/ml", "result": 0.59}, {"measurement": "reporter gene assay signal, mean (Figure 3d)", "setting": "[1]; IL-1alpha 97.4707 pg/ml", "result": 1.08}, {"measurement": "reporter gene assay signal, mean (Figure 3d)", "setting": "[1]; IL-1alpha 194.941 pg/ml", "result": 1.42}, {"measurement": "reporter gene assay signal, mean (Figure 3d)", "setting": "[1]; IL-1alpha 389.883 pg/ml", "result": 1.67}, {"measurement": "reporter gene assay signal, mean (Figure 3d)", "setting": "[1]; IL-1alpha 779.766 pg/ml", "result": 1.82}, {"measurement": "reporter gene assay signal, mean (Figure 3d)", "setting": "[1]; IL-1alpha 1559.53 pg/ml", "result": 1.88}, {"measurement": "reporter gene assay signal, mean (Figure 3d)", "setting": "[1]; IL-1alpha 3119.06 pg/ml", "result": 1.91}, {"measurement": "reporter gene assay signal, mean (Figure 3d)", "setting": "[1]; IL-1alpha 6238.12 pg/ml", "result": 1.96}, {"measurement": "reporter gene assay signal, mean (Figure 3d)", "setting": "[1]; IL-1alpha 12476.2 pg/ml", "result": 1.97}, {"measurement": "reporter gene assay signal, mean (Figure 3d)", "setting": "[1]; IL-1alpha 24952.5 pg/ml", "result": 2.03}, {"measurement": "reporter gene assay signal, mean (Figure 3d)", "setting": "[1]; IL-1alpha 49905 pg/ml", "result": 2.01}, {"measurement": "reporter gene assay signal, mean (Figure 3d)", "setting": "[2]; IL-1beta 3.04596 pg/ml", "result": 0.06}, {"measurement": "reporter gene assay signal, mean (Figure 3d)", "setting": "[2]; IL-1beta 6.09192 pg/ml", "result": 0.06}, {"measurement": "reporter gene assay signal, mean (Figure 3d)", "setting": "[2]; IL-1beta 12.1838 pg/ml", "result": 0.06}, {"measurement": "reporter gene assay signal, mean (Figure 3d)", "setting": "[2]; IL-1beta 24.3677 pg/ml", "result": 0.08}, {"measurement": "reporter gene assay signal, mean (Figure 3d)", "setting": "[2]; IL-1beta 48.7353 pg/ml", "result": 0.1}, {"measurement": "reporter gene assay signal, mean (Figure 3d)", "setting": "[2]; IL-1beta 97.4707 pg/ml", "result": 0.17}, {"measurement": "reporter gene assay signal, mean (Figure 3d)", "setting": "[2]; IL-1beta 194.941 pg/ml", "result": 0.41}, {"measurement": "reporter gene assay signal, mean (Figure 3d)", "setting": "[2]; IL-1beta 389.883 pg/ml", "result": 0.84}, {"measurement": "reporter gene assay signal, mean (Figure 3d)", "setting": "[2]; IL-1beta 779.766 pg/ml", "result": 1.26}, {"measurement": "reporter gene assay signal, mean (Figure 3d)", "setting": "[2]; IL-1beta 1559.53 pg/ml", "result": 1.6}, {"measurement": "reporter gene assay signal, mean (Figure 3d)", "setting": "[2]; IL-1beta 3119.06 pg/ml", "result": 1.74}, {"measurement": "reporter gene assay signal, mean (Figure 3d)", "setting": "[2]; IL-1beta 6238.12 pg/ml", "result": 1.87}, {"measurement": "reporter gene assay signal, mean (Figure 3d)", "setting": "[2]; IL-1beta 12476.2 pg/ml", "result": 1.96}, {"measurement": "reporter gene assay signal, mean (Figure 3d)", "setting": "[2]; IL-1beta 24952.5 pg/ml", "result": 2.06}, {"measurement": "reporter gene assay signal, mean (Figure 3d)", "setting": "[2]; IL-1beta 49905 pg/ml", "result": 2.02}]}
